According to ChEMBL document CHEMBL1153899, “Discovery of benzothiazole derivatives as efficacious and enterocyte-specific MTP inhibitors” (Bioorg Med Chem Lett, 2009):
pIC50: −log10 of the molar value. Active and inactive are the calls of the source. No cut-off for these calls is given here.

What was measured:
[1] = test system: HepG2; test: Inhibition of apoB secretion in human HepG2 cells after 40 hrs by ELISA; type: functional, cell-based; conditions: HepG2, 40 h
[2] = Inhibition of MTP from dog liver microsomes by scintillation counting; set-up: species or system Canis lupus familiaris, Microsome
[3] = test system: Mus musculus; test: Increase in peptide YY level in 3-day high fat diet fed C57BL/6 mouse at 10 mg/kg, po daily for 3 days; type: functional, organism-based; set-up: dose 10 mg/kg
[4] = test system: Mus musculus; test: Decrease in plasma triglyceride level in […] C57BL/6 mouse at 10 mg/kg, po daily for 3 days measured after 6 hrs; type: functional
[5] = test system: Mus musculus; test: Decrease in total food intake in 3-day high fat diet fed C57BL/6 mouse at 10 mg/kg, po daily for 3 days; type: functional
[6] = test system: Mus musculus; test: Decrease in body weight in […] at 10 mg/kg, po daily for 3 days; type: functional, C57BL/6

| pIC50 [1] | pIC50 [2] | Compound | Activity [3] | Activity [4] | Activity [5] | Activity [6] |
| --- | --- | --- | --- | --- | --- | --- |
| 8.51 | 8.08 | CCCCCNC(=O)[C@@H](NC(=O)c1nc2ccc(NC(=O)c3ccccc3-c3ccc(C(C)(C)C)cc3)cc2s1)c1ccccc1 | – | – | – | – |
| 7.76 | – | CN(Cc1ccc(F)cc1)C(=O)[C@@H](NC(=O)c1nc2ccc(NC(=O)c3ccccc3-c3ccc(C(F)(F)F)cc3)cc2s1)c1ccccc1 | – | – | – | – |
| 8.40 | 8.70 | CN(Cc1ccccc1)C(=O)[C@@H](NC(=O)c1cc2cc(NC(=O)c3ccccc3-c3ccc(C(F)(F)F)cc3)ccc2n1C)c1ccccc1 [DIRLOTAPIDE] | – | – | – | – |
| 8.57 | 8.52 | CN(Cc1ccc(F)cc1)C(=O)[C@@H](NC(=O)c1nc2ccc(NC(=O)c3ccccc3-c3ccc(C(C)(C)C)cc3)cc2s1)c1ccccc1 | Active | Active | Active | Active |
| 8.06 | – | CC(C)(C)c1ccc(-c2ccccc2C(=O)Nc2ccc3nc(C(=O)N[C@H](C(=O)N4CCC(F)(F)C4)c4ccccc4)sc3c2)cc1 | – | – | – | – |
| 8.40 | 8.34 | CN(Cc1ccc(F)cc1)C(=O)[C@@H](NC(=O)c1nc2ccc(NC(=O)c3ccccc3-c3nc(C(C)(C)C)cs3)cc2s1)c1ccccc1 | inactive | inactive | inactive | inactive |
| 8.54 | 8.33 | Cc1cccc(C(=O)Nc2ccc3nc(C(=O)N[C@H](C(=O)N(C)Cc4ccc(F)cc4)c4ccccc4)sc3c2)c1-c1ccc(C(C)(C)C)cc1 | Active | Active | Active | Active |
| 8.38 | 7.89 | CN(Cc1ccc(F)cc1)C(=O)[C@@H](NC(=O)c1nc2ccc(NC(=O)c3ccccc3-c3cn4ccccc4n3)cc2s1)c1ccccc1 | inactive | inactive | inactive | inactive |
